Like-named read-outs stand apart in the source and are kept apart here.
How the values were obtained:
[1] = system: L. major strain IR‐173 promastigotes; assay: Antipromastigote assay (resazurin); type: cell-based; settings: L. major IR‐173, read-out: Antileishmanial activity, IC50 ± SD, Promastigote
Experimental: (§1) The antipromastigote activity of synthesized compounds was evaluated as described previously by Mangwegape et al. ([2021]) using three strains of L. donovani (1S (MHOM/SD/62/1S) and 9515 (MHOM/IN/95/9515)) and L. major (IR‐173 [MHOM/IR/−173]). The assay method is available in the Supinfo S1.
(§2) The antipromastigote activity of synthesized compounds was evaluated using a modified, resazurin-based method of Kulshrestha et al. ^2 and Siqueira-Neto et al. ^3 and on three Leishmania strains. Leishmania donovani (strains 1S (MHOM/SD/62/1S) and 9515 (MHOM/IN/95/9515)) and L. major (strain IR-173 (MHOM/IR/-173)) promastigotes were cultured in M199 with Hank's salts and 0.68 mM L-glutamine (Sigma Aldrich) supplemented with 50 U/mL Penicillin/Streptomycin solution (Lonza), 4.2 mM sodium bicarbonate, 25 mM Hepes, 10% fetal bovine serum, 0.25% hemin, 0.1% biotin, and 10 mM adenine (Sigma Aldrich) and the pH adjusted to 7.3 – 7.4. The promastigotes were maintained at 25 °C.
(§3) Amphothericin B (10 μM) served as the standard drug and growth medium without parasites served as the blank. The plates were incubated for 48 hours at 25 °C in humidified atmosphere. After incubation, 50 μL of resazurin solution (0.01% in PBS) was added to each well and the plates were further incubated at 25 °C in the dark for 24 hours. Absorbance was measured at 570 nm and 600 nm using the Thermofisher Scientific GO Multiscan plate reader. Data analysis was performed for each biological replicate using SkanIt 4.0 Research Edition software. Background absorbance of resazurin (600 nm) was subtracted from the absorbance values of resorufin (570 nm). The mean absorbance calculated and the percentage growth inhibition and cell viability were determined by the following equations: […]
(§4) The IC50 and Z-score were determined for each compound’s three biological replicates using the cell viability % values and GraphPad Prism 5. The mean IC50 of the biological replicates with standard deviation (SD) served as the final IC50 of each compound.

[2] = system: L. donovani strain 1S promastigotes; assay: Antipromastigote assay (resazurin); type: cell-based; settings: L. donovani 1S, read-out: 1S IC50 ± SD, Promastigote
Experimental: as §1, §2, §3, §4

[3] = system: L. donovani strain 9515 promastigotes; assay: Antipromastigote assay (resazurin); type: cell-based; settings: L. donovani 9515, read-out: 9515 IC50 ± SD, Promastigote
Experimental: as §1, §2, §3, §4

[4] = system: Clone 15 HL‐60 promyelocytic leukemia cells; assay: Anticancer assay (resazurin); type: cell-based, human; settings: for IC50: read-out: Anticancer activity, IC50 ± SD, Clone 15 HL‐60
Experimental: (§5) The anticancer activities of synthesized compounds were evaluated using a resazurin‐based assay (Czekanska, [2011]). Accordingly, a screening method similar to that of the cytotoxicity assay was used to screen for anticancer activity, using human melanoma (A375), promyelocytic leukemia (Clone 15 HL‐60), lung cancer (A549), and breast cancer (MCF7) cells. The culture and assay methods are provided in the Supinfo S1.
(§6) The potential anticancer activities of synthesized compounds were screened using the resazurin assay. ^5 Breast adenocarcinoma (MCF7, ATCC® HTB-22™) and human melanoma (A375, ATCC® CRL-1619™) cells were cultured in Hyclone Dulbecco's modified Eagle’s medium with high glucose (Separations) supplemented with 10 % fetal bovine serum (FBS) (Thermofisher Scientific) and 1 % L-glutamine, penicillin-streptomycin and non-essential amino acids (Lonza). Human lung carcinoma (A549, ATCC®, CCL-185™) cells were cultured in Ham’s F12K medium supplemented with 10% FBS and 1% L-glutamine, penicillin-streptomycin and non-essential amino acids. Human promyelocytic leukemia (Clone 15 HL-60, ATCC® CRL-1946™) cells were cultured in RPMI-1640 medium (Sigma Aldrich) supplemented with 10% FBS and 1% penicillin-streptomycin. The cell lines were maintained in a humidified atmosphere at 37 °C and 5% CO2.
(§7) For the resazurin assay, 96 well plates were prepared with 100 μL of 100 000 cells/mL MCF7 cell suspension, 100 μL of 50 000 cells/mL A375 cell suspension, 100 μL of 25 000 cells/mL A549 cell suspension, or 50 μL of 50 000 cells/mL HL-60 cell suspension. The MCF7, A375 and A549 cell plates were incubated for 24 hours to allow adherence of the cells to the plate surface, after which the growth medium is replaced with 100 μL medium containing compounds. […] The cell lines were treated with: (i) parthenolide (Sigma Aldrich) (positive control); (ii) growth medium and solvent (negative control to compensate for possible solvent effects); (iii) growth medium and experimental compound solutions. […] Blanks contained growth medium without cells. The treated plates were incubated for 48 hours.
(§8) To initiate the resazurin assay, 50 μL of sterile-filtered resazurin sodium salt (Sigma Aldrich) solution (0.01 % in PBS) was added and the plates incubated for 2 hours (MCF7, A375 and A549 cells) or 24 hours (HL-60 cells). Absorbance was measured at 570 and 600 nm using the Thermofisher Scientific GO Multiscan plate reader. Data analysis was performed for each biological replicate using SkanIt 4.0 Research Edition software. Further data analysis, calculations and IC50 determinations were identical to that of the antileishmanial and cytotoxicity assays.
(§9) For the final IC50 of each compound, the mean IC50 of the biological replicates were calculated with standard deviation (SD).

A375 melanoma cells = assay: Anticancer assay (resazurin); type: cell-based, human; settings: n = 3, read-out: Anticancer activity, IC50 ± SD, A375
Experimental: as §5, §6, §7, §8, §9

[5] = system: L. donovani strain 9515 amastigotes; assay: Anti-amastigote assay (intramacrophage, THP-1 host, resazurin); type: cell-based; settings: L. donovani 9515, read-out: 9515 IC50 ± SD, Amastigote
Experimental: (§10) The activities of synthesized compounds against the intramacrophage parasites of the three Leishmania strains were evaluated using a modified, resazurin‐based method (Jain et al., [2012]; Njanpa et al., [2021]). Suspension cultures of human acute monocytic leukemia (THP‐1) cells were maintained in RPMI‐1640 medium (Sigma Aldrich) supplemented with 10% FBS and 1% penicillin–streptomycin, at 37°C and 5% CO2 in a humidified atmosphere. Duplicate 96‐well plates (for respective anti‐amastigote and cytotoxicity assays) were seeded with 200 μl of a 2.5 × 10^5 cells/ml suspension treated with 25 ng/ml phorbol 12‐myristate 13‐acetate (PMA), followed by 48‐h incubation to promote differentiation into adherent macrophages.
(§11) For the anti‐amastigote assay, differentiated plates were carefully washed with PBS, followed by the addition of 200 μl of stationary phase promastigotes in RPMI 1640 medium with 2% FBS. An MOI of 30:1 was used for all three Leishmania strains. The parasite‐treated plates were incubated for 24 h at 32°C (L. major) or 37°C (L. donovani) and 5% CO2 to promote infection of the macrophages. […] Blanks were represented by growth medium without cells, as well as parasite‐free THP‐1 cells. The treated plates were incubated for 72 h.
(§12) After incubation, the plates were gently washed three times with PBS to remove any remaining extracellular parasites. The wells were then treated with 20 μl of 0.05% sodium dodecyl sulfate in PBS for 30 s to lyse the host macrophages. Lysis was terminated by adding 180 μl promastigote growth medium with 10% FBS. To initiate the resazurin assay, 10 μl of resazurin solution (0.025% in PBS) was added to all wells and the plates were incubated for 24 h at 32°C (L. major) or 37°C (L. donovani) and 5% CO2. Absorbance measurements, calculations, and IC50 determinations were performed as described for the antipromastigote assay (Supinfo S1).

[6] = system: L. donovani strain 1S amastigotes; assay: as above; type: cell-based; settings: L. donovani 1S, read-out: 1S IC50 ± SD, Amastigote
Experimental: as §10, §11, §12

[7] = system: L. major strain IR‐173 amastigotes; assay: as above; type: cell-based; settings: read-out: Antileishmanial activity, IC50 ± SD, Amastigote
Experimental: as §10, §11, §12

[8] = Leishmania major, THP-1, L. major IR‐173

Compound: CC(=O)Nc1ccc(S(=O)(=O)NN)cc1 [1 g, N-[4-(Hydrazinylsulfonyl)phenyl]acetamide]
- melting point: 175 to 178 °C

Compound: NNS(=O)(=O)c1ccc(I)cc1 [1a, 4-Iodobenzenesulfonohydrazide]
- melting point: 160 to 162 °C

Compound: NNS(=O)(=O)c1ccc([N+](=O)[O-])cc1 [1b, 4-Nitrobenzenesulfonohydrazide]
- melting point: 149 to 152 °C

Compound: Cc1cc(C)c(S(=O)(=O)NN)c(C)c1 [1e, 2,4,6-Trimethylbenzenesulfonohydrazide]
- melting point: 110 to 113 °C

Compound: NNS(=O)(=O)c1ccc(-c2ccccc2)cc1 [1h, (1,1'-Biphenyl)-4-sulfonohydrazide]
- melting point: 180 to 183 °C

Compound: NNS(=O)(=O)C1(F)C=CC(c2ccccc2)=CC1 (stereo not shown) [1i, 4-Fluoro-(1,1'-biphenyl)-4-sulfonohydrazide]
- melting point: 164 to 169 °C

Compound: NNS(=O)(=O)C1(Cl)C=CC(c2ccccc2)=CC1 (stereo not shown) [1j, 4-Chloro-(1,1'-biphenyl)-4-sulfonohydrazide]
- melting point: 150 to 153 °C

Compound: COC1(S(=O)(=O)NN)C=CC(c2ccccc2)=CC1 (stereo not shown) [1k, 4-Methoxy-(1,1'-biphenyl)-4-sulfonohydrazide]
- melting point: 173 to 175 °C

Compound: NNS(=O)(=O)c1cccc2c1OCCO2 [1l, 2,3-Dihydrobenzo[b][1,4]dioxine-5-sulfonohydrazide]
- melting point: 101 to 103 °C

Compound: O=[N+]([O-])c1ccc(/C=N/NS(=O)(=O)c2ccc(I)cc2)o1 [2a, (E)-4-Iodo-N'-[(5-nitrofuran-2-yl)methylene]benzenesulfonohydrazide]
- IC50 ([1]; Leishmania major): > 10 µM
- IC50 ([2]; Leishmania donovani): > 10 µM
- IC50 ([3]; Leishmania donovani): > 10 µM
- IC50 ([4]; Homo sapiens, HL-60, n = 3): > 10 µM
- IC50 (A375 melanoma cells; Homo sapiens, A-375): > 10 µM
- IC50 ([5]; Leishmania donovani, THP-1): > 10 µM
- IC50 ([6]; Leishmania donovani, THP-1): > 10 µM
- IC50 [7, 8]: > 10 µM

Compound: O=[N+]([O-])c1ccc(S(=O)(=O)N/N=C/c2ccc([N+](=O)[O-])o2)cc1 [2b, (E)-4-Nitro-N'-[(5-nitrofuran-2-yl)methylene]benzenesulfonohydrazide]
- IC50 ([1]; Leishmania major): > 10 µM
- IC50 ([2]; Leishmania donovani): > 10 µM
- IC50 ([3]; Leishmania donovani): > 10 µM
- IC50 ([4]; Homo sapiens, HL-60, n = 3): < 10 µM
- Preliminary screening, growth inhibition, Clone 15 HL‐60 ([4]; cutoff 50% growth inhibition at 10 μM): qualified
- IC50 ([4]; n = 3): 9.32 ± 0.9 µM
- IC50 (A375 melanoma cells; Homo sapiens, A-375): > 10 µM
- IC50 ([5]; Leishmania donovani, THP-1): > 10 µM
- IC50 ([6]; Leishmania donovani, THP-1): > 10 µM
- IC50 [7, 8]: > 10 µM

Compound: CC(=O)Nc1ccc(S(=O)(=O)N/N=C/c2ccc([N+](=O)[O-])o2)cc1 [2g, (E)-N-{4-{ {2-[(5-nitrofuran-2-yl)methylene]hydrazinyl}sulfonyl}phenyl}acetamide]
- IC50 ([1]; Leishmania major): > 10 µM
- IC50 ([2]; Leishmania donovani): > 10 µM
- IC50 (A375 melanoma cells; Homo sapiens, A-375): > 10 µM
- IC50 ([6]; Leishmania donovani, THP-1): > 10 µM
- IC50 [7, 8]: > 10 µM

Compound: O=C1OCCN1/N=C/c1ccc([N+](=O)[O-])o1 [FZD, furazolidone, reference compound]
- IC50 ([1]; Leishmania major): 0.34 ± 0.03 µM
- IC50 ([2]; Leishmania donovani): 0.32 µM
- IC50 ([3]; Leishmania donovani): 0.28 ± 0.04 µM
- IC50 ([6]; Leishmania donovani, THP-1): 1.94 µM
- IC50 [7, 8]: 2.8 ± 0.5 µM

Compound: C=C1C(=O)O[C@H]2[C@H]1CC/C(C)=C/CC[C@@]1(C)O[C@@H]21 [PN, parthenolide, reference compound]
- IC50 ([4]; Homo sapiens, HL-60, n = 3): 1.85 ± 0.15 µM
- IC50 (A375 melanoma cells; Homo sapiens, A-375): 5.13 ± 0.81 µM

Compound: (E)-4-Chloro-N'-[(5-nitrofuran-2-yl)methylene]-(1,1'-biphenyl)-4-sulfonohydrazide [2j]
- IC50 [1]: > 10 µM
- IC50 [2]: > 10 µM
- IC50 [3]: > 10 µM
- IC50 ([4]; n = 3): > 10 µM
- IC50 (A375 melanoma cells): > 10 µM
- IC50 [5]: > 10 µM
- IC50 [6]: > 10 µM
- IC50 ([7]; L. major IR‐173): > 10 µM

Compound: (E)-4-Methoxy-N'-[(5-nitrofuran-2-yl)methylene]-(1,1'-biphenyl)-4-sulfonohydrazide [2k]
- IC50 [1]: > 10 µM
- IC50 [2]: > 10 µM
- IC50 [3]: > 10 µM
- IC50 ([4]; n = 3): > 10 µM
- IC50 (A375 melanoma cells): > 10 µM
- IC50 [5]: > 10 µM
- IC50 [6]: > 10 µM
- IC50 ([7]; L. major IR‐173): > 10 µM

Source: PMC9546217, “Exploring novel nitrofuranyl sulfonohydrazides as anti‐Leishmania and anti‐cancer agents: Synthesis, in vitro efficacy and hit identification” (Chemical Biology & Drug Design, 2022)
